In PubChem BioAssay AID1963827 (Molecular Pharmacology Branch, DTP, NCI, 2024):
pIC50: −log10 of the molar value. Where “and” joins values, the source holds several entries; their conditions need not be identical. Equal values may be shown once.

Tested on: 994946-033-R-J1-PDC complex spheroid viability
Assay: Anticancer human tumor 994946-033-R-J1-PDC patient-derived melanoma cell line growth inhibition [POLQ]
Settings: for viability, T/C: stronger effect = lower value
Description: Multicellular complex tumor spheroid response to Polymerase (POL) inhibitors (novobiocin, ART-558, RP6685) in combination with a variety of drugs and investigational agents in selected tumor cell lines
The POL inhibitors (novobiocin, ART-558, and RP6685) were evaluated both individually and in combination with standard of care and investigational anticancer small molecules within a complex spheroid model of solid tumors. . Complex spheroids include a stromal component modeled by human endothelial cells (HUVEC) and fibroblasts modeled by human mesenchymal stem cells (MSCs). The concentration ranges selected for each drug and investigational agent were based upon clinically achievable concentrations if the clinical Cmax of the agent was known.
Compounds. The drugs and investigational agents: novobiocin (NSC847541), ART-558 (NSC835418), RP-6685 (NSC848927), peposertib (NSC802822), ceralasertib (NSC780249), elimusertib (NSC800525), camonsertib (NSC841442), AZD-1390 (NSC803789), olaparib (NSC753686), talazoparib (NSC767125), rucaparib (NSC756644), sotorasib (NSC818433), MRTX-1133 (NSC836407), SN-38 (NSC673596), topotecan (NSC609699), epotoside (NSC141540), doxorubicin (NSC123127), gemcitabine (NSC613327), 5-fluorouracil (NSC19893), paclitaxel (NSC125973), vemurafenib (NSC761431), MSA-2 (NSC828583), SN-011 (NSC837082), adavosertib (NSC754352), prexasertib (NSC758257), carboplatin (NSC241240) and oxaliplatin (NSC266046), were obtained from the National Cancer Institute (NCI) Developmental Therapeutics Program Chemical Repository (21). The FDA-approved anticancer drug set is available from the Developmental Therapeutics Program at https://dtp.cancer.gov/organization/dscb/obtaining/. […] The stock solutions were prepared in dimethyl sulfoxide (DMSO, Sigma-Aldrich, St. Louis, MO, cat. D2650), except for the platinum compounds which were prepared in saline (Quality Biological, Gaithersburg, MD, cat. 114-055-101), at 800-fold the tested concentration and stored at -70 degrees C prior to their use. All drugs and investigational agents were tested over a range starting from a high concentration at or near the clinical Cmax and decreasing in half-log increments. If the clinical Cmax for an agent had not been determined, the highest concentration tested was 10 microM, except for SN-38, which was tested at a high concentration of 1 microM.
Cell Culture. All cells were maintained in an incubator at 37 degrees C and 5% CO2 with 95% humidity. The PDC lines were cultured according to standard operating procedures established by the NCI PDMR (https://pdmr.cancer.gov). Table 3 of the manuscript, lists the cell lines along with the number of the three cell types plated to form the mct-spheroids and media for tumor cell growth. After thawing, all PDC lines, except 997537-175-T-J1-PDC and 415267-285-R-J2-PDC, were cultured in Matrigel-coated flasks prepared with a working solution of 1X Ham's F-12 nutrient mix, without supplementation (Thermo Fisher Scientific, cat. 11765054), 100 U/mL penicillin-streptomycin (Thermo Fisher Scientific, cat. 15140122), and 2.5% Matrigel (Corning Inc., Corning, NY, cat. 354248) for the first three passages. The two PDC lines 997537-175-T-J1-PDC and 415267-285-R-J2-PDC were cultured on uncoated flasks. The 857933-349-R-J2-PDC line was cultured in 6C/Colon 1B media containing advanced DMEM/F-12 (Thermo Fisher Scientific, cat. 12634028), 10 mM HEPES (Thermo Fisher Scientific, cat. 15630080), 1X GlutaMAX supplement (Thermo Fisher Scientific, cat. 35050061), 0.1 mg/mL primocin (InvivoGen, San Diego, CA, cat. ant-pm-2), 10% defined fetal bovine serum, heat inactivated (HyClone Laboratories Inc., Logan, UT, cat. SH30070.03HI), 50% L-WRN conditioned media (ATCC, cat. CRL-3276), 1.25 mM N-Acetyl-L-cysteine (Sigma-Aldrich, cat. A9165), 10 mM nicotinamide (Sigma-Aldrich, cat. N0636), 1X B-27 supplement (Thermo Fisher Scientific, cat. 17504044), 1X N-2 supplement (Thermo Fisher Scientific, cat. […]
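Note: spheroids exposed to drugs for 7 days.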
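Throughout, for viability, T/C: 100% = DMSO vehicle treated spheroids.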

For `Nc1ccc(C#CCN(C(=O)Cc2ncc(C(F)(F)F)cc2C(F)(F)F)c2ccc(F)cc2)nn1`, which viability, T/C (compound 10 µM) is on record?
Its viability, T/C is 94.6% [middle of 13 runs].

What about the pIC50 (compound alone, run of 11/06/2023) of the same compound?
Its pIC50 is less than 5.00.

How did the viability, T/C (compound 0.000316 µM) turn out when `CC[C@@]1(O)C(=O)OCc2c1cc1n(c2=O)Cc2cc3c(CN(C)C)c(O)ccc3nc2-1` was run?
The viability, T/C was 86.1% and 53.9% and 105%.

And the viability, T/C (compound 0.001 µM)?
The viability, T/C was 101% and 95.2% and 87.8%.

And the viability, T/C (compound 0.00316 µM)?
The viability, T/C was 86.5% and 108% and 111%.

And the viability, T/C (compound 0.01 µM)?
The viability, T/C was 71.5% and 74% and 68.2%.

What about the viability, T/C (compound 0.0316 µM) of the same compound?
Its viability, T/C is 28% and 52% and 41.7%.

And the viability, T/C (compound 0.1 µM)?
The viability, T/C was 13.2% and 9.44% and 10.1%.

And the pIC50 (curve of compound)?
Its pIC50 is 7.75 and 7.48 and 7.66.

What does the source list for `CC(=O)O[C@H]1C(=O)[C@@]2(C)[C@H]([C@H](OC(=O)c3ccccc3)[C@]3(O)C[C@H](OC(=O)[C@H](O)[C@@H](NC(=O)c4ccccc4)c4ccccc4)C(C)=C1C3(C)C)[C@]1(OC(C)=O)CO[C@@H]1C[C@@H]2O`?
viability, T/C (compound 0.00949 µM): 24.4% and 24.8% and 18.7%; viability, T/C (compound 0.03 µM): 21.9% and 23.1% and 18.1%; viability, T/C (compound 0.0949 µM): 18.5% and 17.9% (2×); viability, T/C (compound 0.3 µM): 17.7% and 11.9% and 15.6%; viability, T/C (compound 0.949 µM): 18.8% and 15.4% and 12.7%; viability, T/C (compound 3 µM): 11.4% and 13% and 9.5%; pIC50 (curve of compound): > 8.02
